The structures appear in SMILES notation. pIC50: −log10 of the molar value. A value given as a limit tells only on which side of the number the result lay.

The experiment addresses T1, human LMPTP-A (Homo sapiens, UniProt P24666).
T1 sequence (P24666 1-158): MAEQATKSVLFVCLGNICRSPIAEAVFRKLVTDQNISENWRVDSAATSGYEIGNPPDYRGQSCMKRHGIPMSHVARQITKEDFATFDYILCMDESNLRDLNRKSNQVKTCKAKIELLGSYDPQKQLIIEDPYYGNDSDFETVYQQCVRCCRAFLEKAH
As to the kind of experiment: Enzyme Assay of Inhibition of LMPTP-A. Type of experiment: biochemical. To be noted: phosphatase assay, OMFP or pNPP substrate, 50 mM Bis-Tris pH 6.0, 37° C. As for the experimental part: Phosphatase assays were performed in buffer containing 50 mM Bis-Tris, pH 6.0, 1 mM DTT and 0.01% Triton X-100 at 37° C. For assays conducted with 3-O-methylfluorescein phosphate (OMFP) as substrate, fluorescence was monitored continuously at λex=485 and λem=525 nm. For assays conducted with para-nitrophenylphosphate (pNPP) as substrate, the reaction was stopped by addition of 2× reaction volume of 1 M NaOH, and absorbance was measured at 405 nm. IC50 values of compounds disclosed herein were determined from plots of inhibitor concentration versus percentage of enzyme activity. For inhibitor selectivity assays, each PTP was incubated with either 0.4 mM OMFP or 5 mM pNPP in the presence of 40 μM compound or DMSO. […] For the inhibitor reversibility assay, 50 nM human LMPTP-A was pre-incubated with 10 μM of compound disclosed herein or DMSO for 5 min. The enzyme was diluted 100× in phosphatase assay buffer containing 0.4 mM OMFP and fluorescence was measured at the indicated time points.
Usually pIC50 stands for −log10 of the IC50, conventionally taken in molar units. The compound `O=C(O)c1cccc(Nc2ncn(Cc3c(Cl)cccc3Cl)c3ncnc2-3)c1` [3-({3-[(2,6-Dichlorophenyl)methyl]-3-hydropurin-6-yl}amino)benzoic acid] showed a pIC50 of 4.70 to 6.00.
As for `Clc1ccc(Cn2cnc(NCc3ccco3)c3ncnc2-3)cc1` [[3-(4-Chloro-benzyl)-3H-purin-6-yl]-furan-2-ylmethyl-amine], the figure is at most 4.70; as for `Nc1ncn(Cc2c(Cl)cccc2Cl)c2nc(-c3ccc(F)c(F)c3)nc1-2` [3-[(2,6-dichlorophenyl)methyl]-8-(3,4-difluorophenyl)-3-hydropurine-6-ylamine], at least 6.00.
In turn, `COC(=O)c1cccc(Nc2ncn(Cc3c(Cl)cccc3Cl)c3ncnc2-3)c1` [Methyl 3-({3-[(2,6-dichlorophenyl)methyl]-3-hydropurin-6-yl}amino)benzoate] gave a pIC50 of 4.70 to 6.00.
As for `Oc1ccccc1Nc1ncn(Cc2c(Cl)cccc2Cl)c2ncnc1-2` [2-({3-[(2,6-Dichlorophenyl)methyl]-3-hydropurin-6-yl}amino)phenol], the pIC50 was 4.70 to 6.00.
Regarding `Nc1ncn(Cc2c(Cl)cccc2[N+](=O)[O-])c2ncnc1-2` [3-(2-Chloro-6-nitrobenzyl)-3H-purin-6-amine], the pIC50 was at least 6.00.
Consider `COCCCNc1ncn(Cc2c(Cl)cccc2Cl)c2ncnc1-2` [[3-(2,6-Dichloro-benzyl)-3H-purin-6-yl]-(3-methoxy-propyl)-amine], for which the pIC50 was 4.70 to 6.00.
Regarding `Nc1ncn(Cc2c(Cl)cccc2C(=O)O)c2ncnc1-2` [2-((6-amino-3H-purin-3-yl)methyl)-3-chlorobenzoic acid], the negative logarithm of the IC50 (pIC50) is 4.70 to 6.00.
As to `COc1cccc(Nc2ncn(Cc3c(Cl)cccc3Cl)c3ncnc2-3)c1` [{3-[(2,6-Dichlorophenyl)methyl](3-hydropurin-6-yl)}(3-methoxyphenyl)amine], the pIC50 is 4.70 to 6.00.
Compound `Clc1ccc(CNc2ncn(Cc3c(Cl)cccc3Cl)c3ncnc2-3)cc1` [N-(4-chlorobenzyl)-3-(2,6-dichlorobenzyl)-3h-purin-6-amine] showed a pIC50 of 4.70 to 6.00.
Compound `Nc1ncn(Cc2ccc(F)cc2F)c2ncnc1-2` [3-(2,4-difluorobenzyl)-3H-purin-6-amine] showed a pIC50 of 4.70 to 6.00.
Turning to `Nc1ncn(Cc2ccncc2Cl)c2ncnc1-2` [3-[(3-chloro-4-pyridyl)methyl]-3-hydropurine-6-ylamine], the pIC50 was 4.70 to 6.00.
As for `Clc1cccc(Cl)c1Cn1cnc(N2CCOCC2)c2ncnc1-2` [3-(2,6-Dichloro-benzyl)-6-morpholin-4-yl-3H-purine], the figure is at most 4.70; as for `CN(C)C(=O)c1cccc(Nc2ncn(Cc3c(Cl)cccc3Cl)c3ncnc2-3)c1` [3-((3-(2,6-dichlorobenzyl)-3H-purin-6-yl)amino)-N,N-dimethylbenzamide], 4.70 to 6.00; as for `Nc1ncn(Cc2ccccn2)c2ncnc1-2` [3-Pyridin-2-ylmethyl-3H-purin-6-ylamine], 4.70 to 6.00.
With `Clc1cccc(Cl)c1Cn1cnc(NCc2ccncc2)c2ncnc1-2` [[3-(2,6-Dichloro-benzyl)-3H-purin-6-yl]-pyridin-4-ylmethyl-amine], the pIC50 was 4.70 to 6.00.
In the case of `Clc1ccccc1Cn1cnc(NCc2ccco2)c2ncnc1-2` [[3-(2-Chloro-benzyl)-3H-purin-6-yl]-furan-2-ylmethyl-amine], the pIC50 was at most 4.70.
As for `Fc1cccc(F)c1Cn1cnc(NCc2ccco2)c2ncnc1-2` [[3-(2,6-Difluoro-benzyl)-3H-purin-6-yl]-furan-2-ylmethyl-amine], the figure is 4.70 to 6.00; as for `Nc1ncn(Cc2c(Cl)cccc2Cl)c2ncnc1-2` [3-<2,6-Dichloro-benzyl)-3H-purin-6-ylamine], at least 6.00.
As for `Nc1ncn(Cc2cccnc2)c2ncnc1-2` [3-Pyridin-3-ylmethyl-3H-purin-6-ylamine], the figure is 4.70 to 6.00; as for `Nc1cccc(Cl)c1Cn1cnc(N)c2ncnc1-2` [3-(2-Amino-6-chlorobenzyl)-3H-purin-6-amine], 4.70 to 6.00.
With `Clc1cccc(Cl)c1Cn1cnc(NCc2ccco2)c2ncnc1-2` [[3-(2,6-Dichloro-benzyl)-3H-purin-6-yl]-furan-2-ylmethyl-amine], the pIC50 was 4.70 to 6.00.
The compound `Fc1cccc(Cl)c1Cn1cnc(NCc2ccco2)c2ncnc1-2` [[3-(2-Chloro-6-fluoro-benzyl)-3H-purin-6-yl]-furan-2-ylmethyl-amine] showed a pIC50 of 4.70 to 6.00.
As for `Clc1cccc(Cn2cnc(NCc3ccco3)c3ncnc2-3)c1` [[3-(3-Chloro-benzyl)-3H-purin-6-yl]-furan-2-ylmethyl-amine], the pIC50 is at most 4.70.
For the compound `Nc1ncn(Cc2c(Cl)cccc2Cl)c2nc(C3=CCCCC3)nc1-2` [3-[(2,6-Dichlorophenyl)methyl]-8-cyclohex-1-enyl-3-hydropurine-6-ylamine], the pIC50 was at least 6.00.
As for `Clc1cccc(Cl)c1Cn1cnc(Nc2ccccc2N2CCOCC2)c2ncnc1-2` [{3-[(2,6-Dichlorophenyl)methyl](3-hydropurin-6-yl)}(2-morpholin-4-ylphenyl)amine], the figure is at most 4.70; as for `COc1ccc(Cn2cnc(NCc3ccco3)c3ncnc2-3)cc1` [Furan-2-ylmethyl-[3-(4-methoxy-benzyl)-3H-purin-6-yl]-amine], at most 4.70.
The result for `CCCCNc1ncn(Cc2c(Cl)cccc2Cl)c2ncnc1-2` [Butyl-[3-(2,6-dichloro-benzyl)-3H-purin-6-yl]-amine] reads 4.70 to 6.00; that for `Nc1ncn(Cc2c(Cl)cccc2Cl)c2nc(-c3cncs3)nc1-2` [3-[(2,6-Dichlorophenyl)methyl]-8-(1,3-thiazol-5-yl)-3-hydropurine-6-ylamine], at least 6.00; that for `Cc1ccccc1-c1nc2c(N)ncn(Cc3c(Cl)cccc3Cl)c-2n1` [3-[(2,6-Dichlorophenyl)methyl]-8-(2-methylphenyl)-3-hydropurine-6-ylamine], at least 6.00.
As to `Nc1ncn(Cc2c(Cl)cccc2Cl)c2nc(-c3cccc(Cl)c3)nc1-2` [3-[(2,6-Dichlorophenyl)methyl]-8-(3-chlorophenyl)-3-hydropurine-6-ylamine], the pIC50 was at least 6.00.
`COc1cccc(Cl)c1Cn1cnc(N)c2ncnc1-2` [3-(2-chloro-6-methoxybenzyl)-3H-purin-6-amine] gave a pIC50 of 4.70 to 6.00.
On to `Nc1ncn(Cc2cscn2)c2ncnc1-2` [3-Thiazol-4-ylmethyl-3H-purin-6-ylaniine], for which the pIC50 was at most 4.70.
Consider `Nc1ncn(Cc2c(Cl)ccnc2Cl)c2ncnc1-2` [3-[(2,4-dichloro-3-pyridyl)methyl]-3-hydropurine-6-ylamine], for which the pIC50 is at least 6.00.
Regarding `Nc1ncn(Cc2c(Cl)cccc2Cl)c2nc(-c3ccc[nH]3)nc1-2` [3-[(2,6-Dichlorophenyl)methyl]-8-pyrrol-2-yl-3-hydropurine-6-ylamine], the pIC50 was at least 6.00.
In turn, `Nc1ncn(Cc2c(Cl)cccc2Cl)c2nc(C(F)(F)C(F)(F)F)nc1-2` [3-[(2,6-dichlorophenyl)methyl]-8-(1,1,2,2,2-pentafluoroethyl)-3-hydropurine-6-ylamine] had a pIC50 of at most 4.70.
As for `Nc1ncn(Cc2c(Cl)cccc2Cl)c2nc(Cc3ccc(Br)cc3)nc1-2` [3-[(2,6-Dichlorophenyl)methyl]-8-[(4-bromophenyl)methyl]-3-hydropurine-6-ylamine], the figure is at least 6.00; as for `Fc1ccc(Nc2ncn(Cc3c(Cl)cccc3Cl)c3ncnc2-3)cc1` [{3-[(2,6-Dichlorophenyl)methyl](3-hydropurin-6-yl)}(4-fluorophenyl)amine], 4.70 to 6.00.
Compound `Nc1ncn(Cc2c(Cl)cccc2Cl)c2nc(-c3ccccc3Cl)nc1-2` [3-[(2,6-Dichlorophenyl)methyl]-8-(2-chlorophenyl)-3-hydropurine-6-ylamine] showed a pIC50 of at least 6.00.
For the compound `Clc1ccccc1Nc1ncn(Cc2c(Cl)cccc2Cl)c2ncnc1-2` [{3-[(2,6-Dichlorophenyl)methyl](3-hydropurine-6-yl)}(2-chlorophenyl)amine], the pIC50 is at least 6.00.
Regarding `CCCCCCc1nc2c(N)ncn(Cc3c(Cl)cccc3Cl)c-2n1` [3-[(2,6-Dichlorophenyl)methyl]-8-hexyl-3-hydropurine-6-ylamine], the pIC50 was at least 6.00.
As to `Cc1csc(-c2nc3c(N)ncn(Cc4c(Cl)cccc4Cl)c-3n2)c1` [3-[(2,6-Dichlorophenyl)methyl]-8-(4-methyl(2-thienyl))-3-hydropurine-6-ylamine], the pIC50 was at most 4.70.
Compound `Nc1ncn(Cc2ccc(Cl)s2)c2ncnc1-2` [3-((5-chlorothiophen-2-yl)methyl)-3H-purin-6-amine] showed a pIC50 of 4.70 to 6.00.
The result for `O=C(Nc1ncn(Cc2c(Cl)cccc2Cl)c2ncnc1-2)c1ccccc1` [N-[3-(2,6-Dichloro-benzyl)-3H-purin-6-yl]-benzamide] reads at most 4.70; that for `Fc1ccccc1CNc1ncn(Cc2c(Cl)cccc2Cl)c2ncnc1-2` [[3-(2,6-Dichloro-benzyl)-3H-purin-6-yl]-(2-fluoro-benzyl)-amine], 4.70 to 6.00.
As to `Nc1ncn(Cc2c(Cl)cccc2Cl)c2nc(Cl)nc1-2` [3-[(2,6-Dichlorophenyl)methyl]-8-chloro-3-hydropurine-6-ylamine], the pIC50 is at most 4.70.
As for `Nc1ncn(Cc2c(Cl)cccc2Cl)c2nc(-c3ccncc3)nc1-2` [3-[(2,6-Dichlorophenyl)methyl]-8-(4-pyridyl)-3-hydropurine-6-ylamine], the figure is at least 6.00.

For the origin of these results see patent US20200338084A1, “INHIBITORS OF LOW MOLECULAR WEIGHT PROTEIN TYROSINE PHOSPHATASE (LMPTP) AND USES THEREOF” (Sanford Burnham Prebys Medical Discovery Institute, priority 2018, published 2020).
